This passage reports IC50 results from BindingDB's records for patent US20250066349 (Prothena Biosciences, 2025).

The structures appear in SMILES notation.

For this assay, the target named is Dual specificity tyrosine-phosphorylation-regulated kinase 1A (Homo sapiens, UniProt Q13627). The assay can be described thus: DYRK1A Inhibition Assay. Here is the method: 1. Add 5 μL enzyme & substrate mixture to each well in Column 2-23 and A24-H24 wells of the 384-well assay plate;2. Add 5 μL 0% Phosphorylation control to A1-H1 and I24-P24 wells of the assay plate;3. Add 5 μL 100% Phosphorylation control to I1-P1 wells of the assay plate;4. Spin the assay plate (1000 rpm, 1 minute @23° C.);5. Incubate enzyme with compounds for 15 minutes at 23° C.;6. Add 5 μL ATP solution to each well of the assay plate;7. Spin the plate (1000 rpm, 1 minute @23° C.);8. Incubate the assay plate for 90 minutes at 23° C.;9. Add 10 μL Development reagent A to each well of the assay plate;10. Centrifuge the plate at 1000 rpm about 15 seconds and seal a film over assay plate. Incubate the assay plate for 30 minutes at 23° C.11. Read assay plates on Envision (see Tables A-D).
One may read the IC50 as the concentration that gives 50% inhibition. Read a high IC50 as weaker potency in that assay. Compound `COC1CC=C(c2n[nH]c3ncc4ccc(-c5cnn(C)c5)cc4c23)CC1` (configuration not stated) [US20250066349, Compound I.8] came in with an IC50 below 10 nM. The compound `CN1CCC(C(=O)Nc2ncc(-c3ccc4c(c3)COC4=O)s2)CC1` [US20250066349, Compound III.2] registered an IC50 below 50 nM. Then `Cn1ncc2c3ccc(C#N)cc3ncc21` [US20250066349, Compound IV.14], with below 500 nM; and `Cc1c(C2CCOCC2)[nH]c2ncc3ccc(-c4cnn(C)c4)cc3c12` [US20250066349, Compound I.51], with below 10 nM; and `CC(=O)N1CCc2c(cnc3[nH]cc(-c4ccc5c(c4)OCO5)c23)C1` [US20250066349, Compound IV.6], with below 500 nM.

`COC1CCC(c2c[nH]c3ncc4ccc(-c5cnn(C)c5)cc4c23)CC1` (configuration not stated) [US20250066349, Compound I.13] registered an IC50 below 10 nM.

In the case of `CN1CCc2c([nH]c(=O)c3cc(C4CCOCC4)ccc23)C1` [US20250066349, Compound IV.22], the IC50 was above 5000 nM. Then `Cn1cc(-c2ccc3cnc4[nH]cc(C5CC(O)C5)c4c3c2)cn1` (configuration not stated) [US20250066349, Compound I.18], with below 10 nM; and `Cn1cc(-c2ccc3cnc4[nH]cc(C5CCC(C(=O)O)CC5)c4c3c2)cn1` (configuration not stated) [US20250066349, Compound I.24], with below 10 nM. Then `COc1ccc(-c2ccc3c4c([nH]c(=O)c3c2)CN(C)CC4)cc1OC` [US20250066349, Compound IV.24], with above 5000 nM; and `COC(=O)c1ccc2c(cnc3[nH]cc(-c4ccc(F)cc4)c32)c1` [US20250066349, Compound I.4], with above 1000 nM; and `Cn1cc(-c2ccc3c(-c4ccc5cnsc5c4)cnn3c2)ccc1=O` [US20250066349, Compound II.2], with below 10 nM. As for `Cc1ncc(-c2ccc3cnc4[nH]cc(C5CCCCC5)c4c3c2)s1` [US20250066349, Compound I.6], the figure is below 10 nM. Regarding `COC1CC(c2c[nH]c3ncc4ccc(-c5cnn(C)c5)cc4c23)C1` (configuration not stated) [US20250066349, Compound I.23], the IC50 is below 10 nM. Then `Cn1cc(-c2ccc3c(-c4ccc5cnn(C)c5c4)cnn3c2)ccc1=O` [US20250066349, Compound II.1], with below 10 nM; and `CC(=O)N1CCc2c(cnc3[nH]cc(C4CCC4)c23)C1` [US20250066349, Compound IV.1], with below 500 nM.

With `N#Cc1ccc2c(c1)ncc1c(Oc3cccc(Cl)c3)cncc12` [US20250066349, Compound IV.21], the IC50 was above 5000 nM. As for `Cn1cc(-c2ccc3cnc4[nH]cc(C5CCC(O)CC5)c4c3c2)cn1` (configuration not stated) [US20250066349, Compound I.14], the figure is below 10 nM; as for `Cn1cc(-c2ccc3cnc4[nH]cc(C5CCC5)c4c3c2)cn1` [US20250066349, Compound I.1], below 10 nM. For the compound `CN(C)CCOc1ccc2c(c1)[nH]c(=O)c1cc(-c3ccncc3)cn12` [US20250066349, Compound IV.18], the IC50 is below 500 nM.

In turn, `CN1CCc2c([nH]c(=O)c3cc(C4=CCOCC4)ccc23)C1` [US20250066349, Compound IV.23] yielded an IC50 above 5000 nM. Then `CN1CCC(C(=O)Nc2ncc(-c3ccc4oncc4c3)s2)CC1` [US20250066349, Compound III.4], with below 50 nM.
